Test results taken from patent US20240140943A1, “COMPETITIVE AND NONCOMPETITIVE INHIBITORS OF THE MUSCARINIC ACETYLCHOLINE RECEPTOR M5” (Vanderbilt University, priority 2021, published 2024).

Target: T1, human M5 receptors (hM5) (Homo sapiens, UniProt P08912)
T1 construct: expressed in transfected cells
T1 sequence (P08912 1-532): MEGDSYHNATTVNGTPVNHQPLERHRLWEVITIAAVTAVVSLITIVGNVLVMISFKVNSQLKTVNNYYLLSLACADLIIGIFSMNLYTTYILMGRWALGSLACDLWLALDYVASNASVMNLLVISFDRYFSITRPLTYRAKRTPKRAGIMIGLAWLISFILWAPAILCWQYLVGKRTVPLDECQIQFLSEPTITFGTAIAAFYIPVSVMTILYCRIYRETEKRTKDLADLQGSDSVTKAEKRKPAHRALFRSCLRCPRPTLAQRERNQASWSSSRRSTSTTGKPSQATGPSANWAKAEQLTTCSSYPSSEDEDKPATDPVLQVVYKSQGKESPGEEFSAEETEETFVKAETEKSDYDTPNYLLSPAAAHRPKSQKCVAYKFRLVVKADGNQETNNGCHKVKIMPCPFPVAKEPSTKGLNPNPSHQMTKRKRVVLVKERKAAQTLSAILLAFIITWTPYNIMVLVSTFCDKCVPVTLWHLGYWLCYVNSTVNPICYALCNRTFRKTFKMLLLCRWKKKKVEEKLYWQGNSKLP
Assay: Cell-based functional calcium mobilization assay of mAChR M5 activity
Details: CHO cells stably expressing hM5; for IC50: calcium mobilization, inhibition of EC80 acetylcholine response; for EC80 MIN: minimum response at EC80 acetylcholine addition, normalized to maximum acetylcholine response
Protocol: All functional cell-based assays were performed essentially as previously described (Mario et al., Mol. Pharm. 2009, 75(3), 577-588; Brady et al., J. Pharm. & Exp. Ther. 2008, 327, 941-953). Initial, single point (10 μM) compound characterization was performed in stable Chinese Hamster Ovary (CHO) cell lines constitutively expressing human M5 receptors. These were plated at 15,000 cells per 20 μL per well in Greiner 384-well black-walled, TC-treated, clear-bottomed plates (Fisher) in Ham's F12 medium supplemented with 10% FBS and 20 mM HEPES. Cells were incubated overnight at 37° C. under 5% CO2. The following day, medium was exchanged with assay buffer (Hank's Balanced Salt Solution supplemented with 20 mM HEPES and 2.5 mM Probenecid, pH 7.4) leaving 20 μL of assay buffer in each well. This was followed by the addition of 20 μL of 2.3 μM of Fluo-4 AM (Invitrogen) in assay buffer (final concentration 1.15 μM). The cells were then incubated 50 minutes at 37° C. under 5% CO2. The assay buffer plus dye was then exchanged with fresh assay buffer leaving a volume of 20 μL in each well. Test compounds were diluted into assay buffer to a 2× (20 μM) concentration in 0.2% dimethylsulfoxide (DMSO) in columns 3-22 with matching DMSO concentration in columns 1, 2, 23, and […]; compounds were added to the assay for a final concentration of 10 μM and a final DMSO concentration of 0.1%. Acetylcholine (Sigma-Aldrich) was prepared to provide 5× concentrations of EC20, EC80, and ECmax in the triple-addition assay, providing a signal window to view agonism, potentiation, and inhibition of the acetylcholine response as well as a means to normalize to the maximum acetylcholine response.
Either an FDSS (Hamamatsu) or Panoptic (WaveFront Biosciences) kinetic imaging plate reader was used for assay execution and measurement of calcium flux. After establishing baseline fluorescence, test compounds (20 μL) were added to the cells using the reader's integrated pipettor and allowed to equilibrate for 140 seconds before addition of the EC20 concentration of acetylcholine (10 μL) along with vehicle in selected DMSO-only wells in the outer two columns. The EC80 concentration of acetylcholine (10 μL) was added 125 seconds after the EC20 addition along with ECmax concentration in the wells receiving vehicle in the second addition. The raw fluorescence data from each well was normalized to the corresponding initial fluorescence reading (static ratio). The maximum fluorescence value following each addition was determined and the minimum value within that same timeframe was subtracted for each well then normalized to the average of the ECmax maximum-minimum response, providing a % AChmax value for each addition for each well. The single point values represent mean values determined within the EC80 addition timeframe obtained from at least three independent determinations performed in triplicate or greater (error bars represent +/−SEM) unless otherwise specified.
Further characterization of test compounds (compound potency and mAChR subtype-selectivity) was performed on the FDSS with calcium mobilization assays performed as previously described (Mario et al., 2009; Brady et al., 2008) and in a format similar to that described above using the same reagents. CHO cells stably expressing hM1, hM2/Gqi5, hM3, hM4/Gqi5, hM5, rM1, rM2/Gqi5, rM3, rM4/Gqi5, or rM5 were plated in the manner described above. A ten-point concentration range of test compound was serial diluted in assay buffer to 2× final concentration and acetylcholine was diluted in assay buffer to 5× of the EC20 and EC80 concentrations, determined empirically and 5× maximal (2 mM final concentration) stock concentrations. FDSS protocols were carried out as described above; the static ratio was calculated and the minimum response subtracted from the maximum response within the timeframe of each addition. This max-min response was then normalized to the maximum acetylcholine response. […]

Row | IC50 | EC80 MIN | Compound
1 | > 10000 nM | 55% | Cc1nnc(S(=O)(=O)[C@H]2CC[C@@H](c3cn4ncnc4cc3C)CC2)o1 [Compound 4, cis-2-methyl-5-((4-(7-methyl-[1,2,4]triazolo[1,5-a]pyridin-6-yl)cyclohexyl)sulfonyl)-1,3,4-oxadiazole]
2 | 532 nM | 3% | Cc1nnc(S(=O)(=O)[C@H]2CC[C@H](c3cn4ncnc4cc3Cl)CC2)o1 [Compound 2, trans-2-((4-(7-chloro-[1,2,4]triazolo[1,5-a]pyridin-6-yl)cyclohexyl)sulfonyl)-5-methyl-1,3,4-oxadiazole]
3 | 33 nM | 2% | Cc1nnc(S(=O)(=O)[C@H]2CC[C@H](c3cn4ncnc4cc3Cl)CC2)n1C [Compound 3, trans-7-chloro-6-(4-((4,5-dimethyl-4H-1,2,4-triazol-3-yl)sulfonyl)cyclohexyl)-[1,2,4]triazolo[1,5-a]pyridine]
4 | 185 nM | 3% | Cc1nnc(S(=O)(=O)[C@H]2CC[C@H](c3cn4ncnc4cc3Cl)CC2)s1 [Compound 1, trans-2-((4-(7-chloro-[1,2,4]triazolo[1,5-a]pyridin-6-yl)cyclohexyl)sulfonyl)-5-methyl-1,3,4-thiadiazole]
